Experimental data taken from US8932613B2, “Ectoparasite control method” (E I du Pont de Nemours and Company, priority 2007, dated 2015).

Assays:
Adult A. aegypti = Adult A. aegypti contact assay; conditions: treated flask base, bioassay run for 8 hrs
Experimental: Adult A. aegypti were exposed to six rates of the positive control compound permethrin and the experimental compounds diluted with acetone. The dilutions of test compound (3-bromo-1-(3-chloro-2-pyridinyl)-N-[4-cyano-2-methyl-6-[(methylamino)carbonyl]phenyl]-1H-pyrazole-5-carboxamide)used were 0 ppm (acetone only), 0.1 ppm, 1 ppm, 10 ppm, 20 ppm, 50 ppm, 100 ppm, 500 ppm and 1000 ppm. Each rate was replicated 5 times. The test was conducted in 100 mL conical flasks. The entire inside of the flasks was coated with Coatasil the day before the treatments are applied. A 0.5 ml aliquot of each rate was applied to the bases only of the flasks. At 24 hours after the surfaces had been treated adult A. aegypti were anaesthetised using food grade carbon dioxide and 10 mosquitoes were introduced to each conical flask and the mouths of the flasks covered with parafilm. Small holes were made in the parafilm to allow gas exchange. The bioassay was run for 8 hrs at 25±2° C. and relative humidity of approximately 70%.

adult H. irritans exigua = test: Adult H. irritans exigua feeding assay (blood meal assay); conditions: for mortality at 0.2 ppm: 200 ppb in bovine blood; for mortality at 0.4 ppm: 400 ppb in bovine blood; for mortality at 0.6 ppm: 600 ppb in bovine blood
Experimental: A blood meal assay was used to determine the LC50 for test compound (3-bromo-1-(3-chloro-2-pyridinyl)-N-[4-cyano-2-methyl-6-[(methylamino)carbonyl]phenyl]-1H-pyrazole-5-carboxamide) on adult H. irritans exigua. Six (6) serial dilutions of the test compound were prepared in decoagulated bovine blood that was stored refrigerated. Ivermectin was included as a positive control compound and a negative control was included in each assay. Flies were collected with a net immediately before each assay from yarded commercial cattle. About 100 adults were introduced into a mesh cage (30×30×30 cm) containing one cotton gauze (4×4×1 cm) soaked in one blood/insecticide concentration. There were 3 replicate cages of each blood/insecticide concentration. Blood gauzes were replaced every 12 hours. The untreated control cages received untreated decoagulated blood. All cages were labelled and stored for 72 hours at 25-27° C. in the dark at ambient relative humidity (70-85%). […] At 72-96 hours all flies were counted and percentage mortality was calculated. Data was subjected to log-probit analysis to determine the LC50 if there is a dose response in the assay.

[1] = tested on: Brown Dog Ticks (R. sanguineus); test: In vivo evaluation against artificial infestations with brown dog ticks on dogs; conditions: topical, test compound 60 mg/kg line-on in NMP, 9 days post-treatment
Excerpt: Twenty five dogs were used in this study that investigated the efficacy of test compound (3-bromo-1-(3-chloro-2-pyridinyl)-N-[4-cyano-2-methyl-6-[(methylamino)carbonyl]phenyl]-1H-pyrazole-5-carboxamide)
against fleas and ticks. Two groups (one treated and one untreated) of five dogs were used to evaluate the flea efficacy whilst two groups of five dogs (one treated and one untreated) were used to investigate the tick efficacy. The dogs in the respective groups were infested weekly with 40 unfed adult ticks and 100 cat fleas. One group was treated with ADVANTIX and served as a positive control. The dogs in this group were infested simultaneously with fleas and ticks. Test compound was formulated in NMP. The treatment was applied topically via syringe on the dorsal line of the animals as a line-on at 60 mg/kg dose rate. The efficacy of the compound was assessed by weekly tick and flea counts. The weekly counts generated in the treated groups were compared to the positive and negative untreated control (UTC) group counts to evaluate efficacy of Test compound.

[2] = tested on: cat flea (Ctenocephalides felis Bouche); test: In vivo evaluation against artificial infestations with cat fleas on mice; conditions: CD-1 mouse, 10 mg/kg oral in propylene glycol/glycerol formal (60:40), fleas applied 2 h after dosing, evaluated 48 hours after flea application
Experimental: For evaluating control of the cat flea (Ctenocephalides felis Bouche), a CD-1® mouse (about 30 g, male, obtained from Charles River Laboratories, Wilmington, Mass.) was orally dosed with test compound in an amount of 10 mg/kg solubilized in propylene glycol/glycerol formal (60:40). Two hours after oral administration of the test compound, approximately 8 to 16 adult fleas were applied to each mouse. The fleas were then evaluated for mortality 48 hours after flea application to the mouse.

Row | SMILES | LC90 (Adult A. aegypti) | mortality at 0.2 ppm (adult H. irritans exigua; exposure time 7 hr) | mortality at 0.2 ppm (adult H. irritans exigua; exposure time 17 hr) | mortality at 0.2 ppm (adult H. irritans exigua; exposure time 24 hr) | mortality at 0.4 ppm (adult H. irritans exigua; exposure time 7 hr) | mortality at 0.4 ppm (adult H. irritans exigua; exposure time 17 hr) | mortality at 0.4 ppm (adult H. irritans exigua; exposure time 24 hr) | mortality at 0.6 ppm (adult H. irritans exigua; exposure time 7 hr) | mortality at 0.6 ppm (adult H. irritans exigua; exposure time 17 hr) | mortality at 0.6 ppm (adult H. irritans exigua; exposure time 24 hr) | efficacy against ticks [1] | flea mortality [2]
1 | CC1(C)C(C=C(Cl)Cl)C1C(=O)OCc1cccc(Oc2ccccc2)c1 (stereo not shown) [Permethrin, reference compound] | 0.046 ug/flask |  |  |  |  |  |  |  |  |  |  | 
2 | CNC(=O)c1cc(C#N)cc(C)c1NC(=O)c1cc(Br)nn1-c1ncccc1Cl [Test compound, 3-bromo-1-(3-chloro-2-pyridinyl)-N-[4-cyano-2-methyl-6-[(methylamino)carbonyl]phenyl]-1H-pyrazole-5-carboxamide] | 0.033 ug/flask | 77.3% | 78.8% | 80.3% | 78.8% | 89.8% | 94.9% | 80.5% | 94.7% | 96.5% | over 94.9% | 45%
